According to patent US10463649B2, “Inhibitors of Mc1-1 as drugs to overcome resistance to BRAF inhibitors and MEK inhibitors” (Texas Tech University System, priority 2015, dated 2019):

How the values were obtained:
Mcl-1 [1] = assay: Western blotting for Mcl-1 and Cl.PARP in melanoma cells treated with PL; assay type: cell-based; settings: SK-MEL-28 and Sk-MEL-2 cells, 5, 7.5 and 10 μM PL, 48 hours
SK-MEL-28 cells = assay: Cell viability / cytotoxicity by sulforhodamine B (SRB) assay in SK-MEL-28 cells
Mcl-1 [2] = assay: Western blotting and immunohistochemistry of A375-R tumors; design: species or system mice; settings: A375-R tumors at termination of the in vivo studies, compared with control group
Protocol: (§1) FIG. 5A, A375-R cells were injected subcutaneously in female athymic nude mice. Once the tumor volume reach 150 mm3, the mice were randomly divided into 4 groups (n=7 in each group) and the treatment was started as described under ‘Material and Method’ section. Tumor volumes were measure thrice a week by vernier calipers and the values were plotted as Mean±S.E.M. FIG. 5B, at day 30, the mice were sacrifice, tumors were extracted and weighed. The values are plotted as mean±S.D. *, p<0.05 as compared to control. #, p<0.05 as compared to vemurafenib treated group. $, p<0.05 as compared to TW-37 treated group. […] FIG. 5D, Formalin fixed paraffin embedded tumor sections were subjected to immunohistochemistry. Representative images of the tumor sections stained with Mcl-1, p-ERK and cleaved caspase 3.
FIGS. 6A to 6D show silencing Mcl-1 suppresses the growth of melanoma tumors resistance to vemurafenib. FIG. 6A, A375-R cells were injected subcutaneously in female athymic nude mice. […]
Tumor Therapy. […] Tumor measurements were taken thrice a week by vernier calipers and the volume was calculated by the formula V=length*(breadth)2/2 as previously described (28-30). […]
Immunohistochemistry. Expression of Mcl-1, Cleaved Caspase 3 and p-ERK in tumor samples were analyzed by immunohistochemistry in paraffin sections five mice from each group. […]

A375-R cells [3] = assay: Tumor therapy: A375-R xenografts in athymic nude mice; assay type: in vivo
Protocol: as §1
FIGS. 6A to 6D show silencing Mcl-1 suppresses the growth of melanoma tumors resistance to vemurafenib. FIG. 6A, A375-R cells were injected subcutaneously in female athymic nude mice. Once the tumor volume reach 150 mm3, the mice were randomly divided into 4 groups (n=6 in each group) and the treatment was started as described under ‘Material and Method’ section. Tumor volumes were measure thrice a week by vernier calipers and the values were plotted as Mean±S.E.M. FIG. 6B, at day 30, the mice were sacrifice, tumors were extracted and weighed. The values are plotted as mean±S.D. *, p<0.05 as compared to control. #, p<0.05 as compared to vemurafenib treated group. $, p<0.05 as compared to TW-37 treated group. […] FIG. 6D, Formalin fixed paraffin embedded tumor sections were subjected to immunohistochemistry. Representative images of the tumor sections stained with Mcl-1, p-ERK and cleaved caspase 3.
Tumor Therapy. All the studies involving animals were approved by the Institutional Animal Care and Use Committee. About 5-6 weeks old athymic nude mice (Charles River, Wilmington, Mass., USA) were allowed to acclimatize for one week prior to the beginning of the studies. Mice were injected subcutaneously with 3.5×10^6 A375-R cells. When the tumor volume reached to 150 mm3, mice were randomly segregated into several groups with 6-7 mice in each group. Vemurafenib, formulated as MBP was suspended at a desired concentration in a vehicle containing 2% Klucel LF and adjusted to pH 4 with HCl, was given at a dose of 25 mg/kg twice a day through oral gavage. TW-37 in PBS/ethanol/Tween 80 was administered intraperitonially at a dose of 30 mg/kg thrice a week. Mcl-1 or scrambled siRNA was administered twice a week directly into the tumors (intra-tumoral injection) as described by the inventors previously (27). Tumor measurements were taken thrice a week by vernier calipers and the volume was calculated by the formula V=length*(breadth)2/2 as previously described (28-30). At the end of the study, animals were sacrificed and tumors were excised and fixed in formalin for immunohistochemistry or flash frozen in liquid nitrogen for western blotting analysis as described previously by the inventors (31).

SK-MEL-28-R cells = assay: SRB cell survival in vemurafenib resistant SK-MEL-28-R cells; assay type: cell-based; settings: SK-MEL-28-R cells, 500 nM TW-37 alone
Protocol: (§2) Each study was performed three times independently. Mcl-1 inhibitor overcomes vemurafenib resistance in melanoma cells. […] The cell survival was evaluated by sulforhodamine B assay.
(§3) FIGS. 4A to 4D show the silencing Mcl-1 reverses vemurafenib resistance. […] The cell survival was evaluated by sulforhodamine B assay.
(§4) Generation of BRAF-inhibitor resistant cell lines. Vemurafenib resistant clones of A375 and SK-MEL-28 were generated by continuous exposure of cells to escalating concentrations of vemurafenib over a period of one year. The cells were treated with vemurafenib for 72 hours after which fresh media was added to the cells. In all, cells were exposed weekly to two treatments of vemurafenib for 72 hours each with a 24 hour recovery period between the treatments. […] Similarly, dabrafenib resistant cells were cultured by incubating the cells with increasing concentrations of the drug for a period of 3 months as described above. The fold resistant was intermittently evaluated by cytotoxicity analysis. Vemurafenib resistant cell lines were referred to as SK-MEL-28-R or A375-R and dabrafenib resistant cell lines were referred to as A375-DR, SK-MEL-28-DR or WM-239-DR. […] Here, A375 cells were injected subcutaneously in nude mice. When palpable tumors were formed, the mice were orally treated with 30 mg/kg vemurafenib twice a day. After a month, the tumors the resisted vemurafenib treatments were extracted and cultured in vitro.
(§5) Mcl-1 silencing. Silencing of Mcl-1 was achieved according to the protocol described by the inventors (27). Briefly, 0.3×10^6 cells were plated in OPTI-MEM without antibiotics and transfected with either Mcl-1 siRNA or scrambled siRNA. Complexes were prepared by incubating […] siRNA with 8 μl siPORT transfection reagent in 200 μl OPTI-MEM media without serum or antibiotic for 20 minutes. These complexes were then added to the cells. Six hours after transfection, complexes were replaced with fresh medium.

A375 cells = assay: Cell viability / cytotoxicity by sulforhodamine B (SRB) assay in A375 cells
Protocol: Each study was performed three times independently.

A375-R cells [4] = assay: SRB cell survival in vemurafenib resistant A375-R cells; assay type: cell-based; settings: A375-R cells, 500 nM TW-37 alone
Protocol: as §2, §3, §4, §5

A375-DR cells = assay: SRB cytotoxicity in dabrafenib resistant A375-DR cells; assay type: cell-based; settings: 72 hours
Protocol: (§6) A375, SK-MEL-28, SK-MEL-5 and WM-239 were treated (FIG. 7A) dabrafenib and trametinib and (FIG. 7B) vemurafenib and trametinib for 72 hours. Following the treatment, Mcl-1 expression was analyzed by western blotting.
as §4

WM-239 cells = assay: SRB cytotoxicity in WM-239 cells; assay type: cell-based; settings: 72 hours, read-out: IC50 of dabrafenib
SK-MEL-28-DR cells = assay: SRB cytotoxicity in dabrafenib resistant SK-MEL-28-DR cells; assay type: cell-based; settings: 72 hours
Protocol: as §6, §4

[5] = system: SK-MEL-28 cells transfected with Mcl-1 plasmid; assay: SRB cell survival in SK-MEL-28 cells transfected with Mcl-1 plasmid; assay type: cell-based; settings: SK-MEL-28 transfected with Mcl-1 plasmid, 10 nM dabrafenib, 2 nM trametinib or the combination, 72 hours
Protocol: FIG. 3A (A375 cells) and FIG. 3B SK-MEL-28 cells untransfected or transfected with Mcl-1 plasmid were treated with 0.2 μM and 0.4 μM vemurafenib for 72 hours. The cell survival was evaluated by sulforhodamine B assay. […] FIG. 3E A375 and A375-Mcl-1+/+ or FIG. 3F, SK-MEL-28 and SK-MEL-28-Mcl-1+/+ were treated with 0.2 μM and 0.4 μM vemurafenib for 72 hours. The cell survival was evaluated by sulforhodamine B assay.
FIG. 8A (A375) and FIG. 8B (SK-MEL-28) untransfected or transfected with Mcl-1 plasmid were treated with 10 nM dabrafenib or 2 nM trametinib for 72 hours. FIG. 8C A375 and FIG. 8D SK-MEL 28 cells untransfected or transfected with Mcl-1 plasmid were treated with 400 nM vemurafenib or 2 nM trametinib for 72 hours. The cell survival was evaluated by sulforhodamine B assay.
Mcl-1 overexpression. A375 or SK-MEL-28 cells were transiently or stably transfected with plasmid overexpressing Mcl-1 by nucleofection kit (Lonza, Basel, Switzerland) according to manufacturer's protocol and previously described by the inventors (26). Briefly, 2×10^6 cells were suspended in a reaction mixture from the kit specific to the cell line (Kit V for A375 and Kit R for SK-MEL-28 cells). The cells were transferred to the cuvettes and nucleofected using the nucleofector instrument (Amaxa, Cologne, Germany). […]

WM-239-DR cells = assay: SRB cytotoxicity in dabrafenib resistant WM-239-DR cells; assay type: cell-based; settings: 72 hours
Protocol: as §6, §4

Mcl-1 [6] = assay: Western blotting for Mcl-1 expression in melanoma cells treated with dabrafenib and trametinib; assay type: cell-based; settings: A375, SK-MEL-28, SK-MEL-5 and WM-239 cells, 72 hours; dabrafenib 10 nM
Protocol: as §6
A combination of BRAF inhibitor (dabrafenib) and MEK1/2 inhibitor (trametinib) for the treatment of late phase malignant melanoma has been approved by the FDA.

## COc1cc(/C=C/C(=O)N2CCC=CC2=O)cc(OC)c1OC [PL]
Mcl-1 [1]
  Inhibition of Mcl-1 (western blotting): inhibits Mcl-1

## CC(C)c1ccccc1Cc1cc(C(=O)Nc2ccc(S(=O)(=O)c3ccccc3C(C)(C)C)cc2)c(O)c(O)c1O [TW-37]
SK-MEL-28 cells; 500 nM TW-37 alone
  Decrease of cell viability: 58%
Mcl-1 [2]
  Expression of Mcl-1 in tumors (western blotting and immunohistochemistry): diminished expression of Mcl-1
A375-R cells [3]; day 30, vemurafenib 25 mg/kg twice a day oral, TW-37 30 mg/kg i.p. thrice a week, Mcl-1 siRNA intratumoral twice a week
  Average tumor volume: 870±187.8 mm3
A375-R cells [3]; day 30, versus control group
  Reduction in tumor growth (tumor volume) as compared to control: 48%
A375-R cells [3]; day 30, versus vemurafenib group
  Reduction in tumor growth (tumor volume) as compared to vemurafenib treated group: 46%
A375-R cells [3]; tumors weighed at day 30, versus control
  Reduction of tumor weight as compared to control: 47%
A375-R cells [3]; tumors weighed at day 30, versus vemurafenib group
  Reduction of tumor weight as compared to vemurafenib treated group: 48%
SK-MEL-28-R cells
  Reduction of growth: 25%
A375 cells; A375 cells, 500 nM TW-37 alone
  Decrease of cell viability: 60%
A375-R cells [4]
  Decrease of cell survival: 25%

## CC(C)(C)c1nc(-c2cccc(NS(=O)(=O)c3c(F)cccc3F)c2F)c(-c2ccnc(N)n2)s1 [dabrafenib]
SK-MEL-28 cells; read-out: IC50 of dabrafenib, 72 hours
  IC50: 2 nM
A375-DR cells
  IC50: > 100 nM
WM-239 cells
  IC50: 6 nM
SK-MEL-28-DR cells
  IC50: > 100 nM
[5]
  Reduction in cell survival upon Mcl-1 overexpression: completely blocked the effect
WM-239-DR cells
  IC50: > 100 nM
Mcl-1 [6]
  Expression of Mcl-1 (western blotting): significantly induced the expression of Mcl-1
A375 cells; Homo sapiens, A-375, 72 h, read-out: IC50 of dabrafenib
  IC50: 5 nM
